Test results as given in ChEMBL document CHEMBL3232739, “Discovery of a potent and dissociated non-steroidal glucocorticoid receptor agonist containing an alkyl carbinol pharmacophore” (Bioorg Med Chem Lett, 2014).

Columns and labels:
Progesterone receptor = molecular target: T1, Progesterone receptor (Homo sapiens, UniProt P06401); test: Displacement of TAMRA-labeled mifepristone from progesterone receptor (unknown origin) by fluorescence polarization assay
T1 sequence (P06401 whole entry): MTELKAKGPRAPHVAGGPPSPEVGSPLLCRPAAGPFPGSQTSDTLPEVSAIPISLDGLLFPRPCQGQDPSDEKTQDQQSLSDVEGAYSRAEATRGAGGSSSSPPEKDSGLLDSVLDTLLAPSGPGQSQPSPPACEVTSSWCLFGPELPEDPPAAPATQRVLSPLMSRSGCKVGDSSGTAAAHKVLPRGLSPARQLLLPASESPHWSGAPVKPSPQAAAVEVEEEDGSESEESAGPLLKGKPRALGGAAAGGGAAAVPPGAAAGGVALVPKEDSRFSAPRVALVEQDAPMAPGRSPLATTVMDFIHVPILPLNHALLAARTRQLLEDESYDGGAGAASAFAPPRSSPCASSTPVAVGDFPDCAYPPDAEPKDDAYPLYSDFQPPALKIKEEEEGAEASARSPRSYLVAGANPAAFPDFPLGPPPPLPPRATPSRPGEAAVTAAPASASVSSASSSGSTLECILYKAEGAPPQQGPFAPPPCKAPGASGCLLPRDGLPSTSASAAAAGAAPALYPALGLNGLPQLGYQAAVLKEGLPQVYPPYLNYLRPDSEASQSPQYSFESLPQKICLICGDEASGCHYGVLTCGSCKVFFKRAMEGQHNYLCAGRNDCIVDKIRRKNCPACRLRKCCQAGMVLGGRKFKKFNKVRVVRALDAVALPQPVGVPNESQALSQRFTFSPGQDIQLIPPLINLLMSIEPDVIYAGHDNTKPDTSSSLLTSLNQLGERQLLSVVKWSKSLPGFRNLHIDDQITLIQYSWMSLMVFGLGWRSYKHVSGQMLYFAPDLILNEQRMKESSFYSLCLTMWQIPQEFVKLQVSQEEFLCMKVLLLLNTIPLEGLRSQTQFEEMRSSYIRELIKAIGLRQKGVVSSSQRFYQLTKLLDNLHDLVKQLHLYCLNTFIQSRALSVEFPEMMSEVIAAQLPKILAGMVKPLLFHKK

[1] = molecular target: T2, Mineralocorticoid receptor (Homo sapiens, UniProt P08235); test: Displacement of TAMRA-labeled dexamethasone from mineralocorticoid receptor (unknown origin) by fluorescence polarization assay
T2 sequence (P08235 whole entry): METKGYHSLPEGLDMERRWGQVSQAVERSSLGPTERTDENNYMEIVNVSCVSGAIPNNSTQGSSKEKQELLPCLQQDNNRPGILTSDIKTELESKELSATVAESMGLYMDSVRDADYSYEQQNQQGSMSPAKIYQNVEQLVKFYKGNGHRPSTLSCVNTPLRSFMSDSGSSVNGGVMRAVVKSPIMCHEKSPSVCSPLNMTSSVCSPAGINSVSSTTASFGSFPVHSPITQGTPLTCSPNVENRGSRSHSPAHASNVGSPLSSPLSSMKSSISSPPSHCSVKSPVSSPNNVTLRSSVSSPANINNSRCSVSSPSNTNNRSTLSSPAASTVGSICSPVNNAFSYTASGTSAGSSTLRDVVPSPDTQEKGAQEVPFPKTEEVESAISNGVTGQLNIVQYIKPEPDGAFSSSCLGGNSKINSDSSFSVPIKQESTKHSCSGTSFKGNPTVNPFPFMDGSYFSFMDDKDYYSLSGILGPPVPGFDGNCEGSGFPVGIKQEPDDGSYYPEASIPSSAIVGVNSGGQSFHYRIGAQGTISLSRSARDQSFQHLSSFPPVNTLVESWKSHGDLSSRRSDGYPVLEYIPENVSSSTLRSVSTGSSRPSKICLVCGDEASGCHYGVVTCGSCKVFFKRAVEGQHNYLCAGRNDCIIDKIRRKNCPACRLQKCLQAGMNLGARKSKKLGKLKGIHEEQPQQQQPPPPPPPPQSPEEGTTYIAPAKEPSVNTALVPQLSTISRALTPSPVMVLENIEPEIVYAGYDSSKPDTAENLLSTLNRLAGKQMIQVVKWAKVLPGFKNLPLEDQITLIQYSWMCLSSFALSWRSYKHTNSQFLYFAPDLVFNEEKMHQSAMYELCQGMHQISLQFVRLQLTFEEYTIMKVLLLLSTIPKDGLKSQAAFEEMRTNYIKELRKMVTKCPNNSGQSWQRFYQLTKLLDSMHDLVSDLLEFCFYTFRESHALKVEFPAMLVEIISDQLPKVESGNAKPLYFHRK

Homo sapiens [2] = species: Homo sapiens; test: Selectivity ratio of IC50 for progesterone receptor (unknown origin) to IC50 for glucocorticoid receptor (unknown origin)
Homo sapiens [3] = species: Homo sapiens; test: Selectivity ratio of IC50 for mineralocorticoid receptor (unknown origin) to IC50 for glucocorticoid receptor (unknown origin)
Glucocorticoid receptor [4] = molecular target: T3, Glucocorticoid receptor (Homo sapiens, UniProt P04150)
T3 sequence (P04150 whole entry): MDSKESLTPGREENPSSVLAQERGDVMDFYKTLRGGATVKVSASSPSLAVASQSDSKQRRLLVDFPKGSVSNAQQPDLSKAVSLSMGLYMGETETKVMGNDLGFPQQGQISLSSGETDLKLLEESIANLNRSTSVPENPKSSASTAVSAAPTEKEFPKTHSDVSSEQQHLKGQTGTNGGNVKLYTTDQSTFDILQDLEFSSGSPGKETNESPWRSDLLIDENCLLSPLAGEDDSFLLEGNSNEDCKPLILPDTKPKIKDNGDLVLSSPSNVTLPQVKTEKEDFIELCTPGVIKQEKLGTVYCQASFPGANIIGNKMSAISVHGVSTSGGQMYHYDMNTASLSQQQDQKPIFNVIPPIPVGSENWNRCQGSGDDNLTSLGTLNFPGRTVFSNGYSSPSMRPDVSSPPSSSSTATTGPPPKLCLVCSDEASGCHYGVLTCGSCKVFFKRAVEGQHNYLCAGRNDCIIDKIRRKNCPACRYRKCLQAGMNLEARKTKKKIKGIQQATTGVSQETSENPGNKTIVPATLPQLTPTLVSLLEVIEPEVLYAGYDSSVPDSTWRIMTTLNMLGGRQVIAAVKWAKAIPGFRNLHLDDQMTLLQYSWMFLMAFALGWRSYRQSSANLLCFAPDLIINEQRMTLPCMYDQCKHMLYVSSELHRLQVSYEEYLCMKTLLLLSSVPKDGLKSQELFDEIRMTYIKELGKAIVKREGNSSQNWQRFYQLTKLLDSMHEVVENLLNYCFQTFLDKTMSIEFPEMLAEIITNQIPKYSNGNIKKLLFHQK

Glucocorticoid receptor [5] = molecular target: T3, Glucocorticoid receptor; remark: listed apart in the source
Description: Agonist activity at glucocorticoid receptor in human foreskin fibroblasts assessed as inhibition of IL-1-induced IL-6 production by trans-repression assay

Glucocorticoid receptor [6] = molecular target: T3, Glucocorticoid receptor; test: Transactivation of glucocorticoid receptor in human HeLa cells harboring MMTV promoter at 2 uM by luciferase reporter gene assay relative to dexamethasone; assay type: cell-based; settings: read-out: Efficacy
[7] = Chemical stability of the compound in aqueous solution at pH 2; assay type: physicochemical; settings: buffer
[8] = Chemical stability of the compound in aqueous solution at pH 2 to 7.4 after 24 hrs; assay type: physicochemical; settings: buffer, pH 2, 24 h
Glucocorticoid receptor [9] = molecular target: T3, Glucocorticoid receptor; remark: listed apart in the source
Description: Transactivation of glucocorticoid receptor in human HeLa cells harboring MMTV promoter by luciferase reporter gene assay

Mus musculus [10] = test: Antiarthritic activity in B10.RIII mouse collagen/complete Freund's adjuvant-induced arthritis model assessed as reduction of disease score at 30 mg/kg, po qd for 5 weeks relative to control; assay type: functional; design: scale not given: the % may be the effect or the level left
Mus musculus [11] = test: Antiinflammatory activity in mouse assessed as inhibition of LPS-induced TNFalpha production at 3 mg/kg, po; assay type: functional
Mus musculus [12] = test: Antiarthritic activity in B10.RIII mouse collagen/complete Freund's adjuvant-induced arthritis model assessed as reduction of disease score at 3 mg/kg, po qd for 5 weeks relative to control; assay type: functional; design: scale not given: the % may be the effect or the level left
Mus musculus [13] = test: Toxicity in B10.RIII mouse assessed as body fate level in serum at 30 mg/kg, po qd for 5 weeks relative to control; assay type: organism-based; design: dose 30 mg/kg, route oral; settings: in vivo, 840 h
Mus musculus [14] = test: Toxicity in B10.RIII mouse assessed as body fate level in serum at 3 mg/kg, po qd for 5 weeks relative to control; assay type: organism-based; design: dose 3 mg/kg, route oral; settings: in vivo, 840 h
Mus musculus [15] = test: Toxicity in B10.RIII mouse assessed as triglyceride level in serum at 30 mg/kg, po qd for 5 weeks relative to control; assay type: organism-based; design: dose 30 mg/kg, route oral; settings: in vivo, 840 h
Mus musculus [16] = test: Toxicity in B10.RIII mouse assessed as triglyceride level in serum at 3 mg/kg, po qd for 5 weeks relative to control; assay type: organism-based; design: dose 3 mg/kg, route oral; settings: in vivo, 840 h
Mus musculus [17] = test: Toxicity in B10.RIII mouse assessed as free fatty acid level in serum at 30 mg/kg, po qd for 5 weeks relative to control; assay type: organism-based; design: dose 30 mg/kg, route oral; settings: in vivo, 840 h
Mus musculus [18] = test: Toxicity in B10.RIII mouse assessed as free fatty acid level in serum at 3 mg/kg, po qd for 5 weeks relative to control; assay type: organism-based; design: dose 3 mg/kg, route oral; settings: in vivo, 840 h
Mus musculus [19] = test: Toxicity in B10.RIII mouse assessed as insulin level in serum at 30 mg/kg, po qd for 5 weeks relative to control; assay type: organism-based; design: dose 30 mg/kg, route oral; settings: in vivo, 840 h
Mus musculus [20] = test: Toxicity in B10.RIII mouse assessed as insulin level in serum at 3 mg/kg, po qd for 5 weeks relative to control; assay type: organism-based; design: dose 3 mg/kg, route oral; settings: in vivo, 840 h

Compound	IC50 (Progesterone receptor) [nM]	IC50 [1] [nM]	IC50 (Glucocorticoid receptor [4]) [nM]	IC50 (Glucocorticoid receptor [5]) [nM]	also measured
CCC(C)(C)C(O)(Cc1cc2ccncc2[nH]1)CC(C)(C)c1cc(F)ccc1OC (centres undefined)	> 2000	1900	13	> 2000	Ratio IC50 (Homo sapiens [2]): > 100; Ratio IC50 (Homo sapiens [3]): > 100
Cc1ccc(F)cc1C(C)(C)CC(O)(Cc1cc2cnccc2[nH]1)C(C)(C)C (racemic)	780	720	5	35	Emax at 2 µM (Glucocorticoid receptor [6]): 1%; Stability [7]: Stable; Stability [8]: Stable; EC50 (Glucocorticoid receptor [9]): > 2000 nM
COc1ccc(F)cc1C(C)(C)CC(O)(Cc1cc2ccncc2[nH]1)C(C)(C)C (centres undefined)	1800	1800	8	36	Ratio IC50 (Homo sapiens [2]): > 100; Ratio IC50 (Homo sapiens [3]): > 100
COc1ccc(F)cc1C(C)(C)CC(C)(O)Cc1cc2ccncc2[nH]1 (centres undefined)	> 2000	> 2000	230	> 2000	
Cc1ccc(F)cc1C(C)(C)C[C@](O)(Cc1cc2cnccc2[nH]1)C(C)(C)C	> 2000	1300	1300		
Cc1ccc(F)cc1C(C)(C)CC(O)(Cc1cc2cnccc2[nH]1)C1CC1 (centres undefined)	> 2000	1550	9	24	Emax at 2 µM (Glucocorticoid receptor [6]): 11%; Stability [7]: Unstable; EC50 (Glucocorticoid receptor [9]): > 2000 nM
COc1ccc(F)cc1C(C)(C)CC(O)(Cc1cc2cnccc2[nH]1)C(C)(C)C (centres undefined)	790	640	4	9	Emax at 2 µM (Glucocorticoid receptor [6]): 10%; EC50 (Glucocorticoid receptor [9]): > 2000 nM
COc1ccc(F)cc1C(C)(C)CC(O)(Cc1cc2ccncc2[nH]1)C1CCCC1 (single isomer, unassigned)	> 2000	1100	26	> 2000	
COc1ccc(F)cc1C(C)(C)CC(O)(Cc1cc2ccncc2[nH]1)C1CC1 (centres undefined)	> 2000	> 2000	15	47	Ratio IC50 (Homo sapiens [2]): > 100; Ratio IC50 (Homo sapiens [3]): > 100
C[C@]12C=CC(=O)C=C1CC[C@@H]1[C@@H]2[C@@H](O)C[C@@]2(C)[C@H]1CC[C@]2(O)C(=O)CO [PREDNISOLONE]					Activity (Mus musculus [10]): -80%; inhibition in vivo at 3 mg/kg (Mus musculus [11]): 87%; Activity (Mus musculus [12]): -42%; Activity (Mus musculus [13]): 53%; Activity (Mus musculus [14]): 13%; Activity (Mus musculus [15]): 55%; Activity (Mus musculus [16]): -11%; Activity (Mus musculus [17]): 27%; Activity (Mus musculus [18]): 16%; Activity (Mus musculus [19]): 187%; Activity (Mus musculus [20]): 37%
COc1ccc(F)cc1C(C)(C)CC(O)(Cc1cc2ccncc2[nH]1)C1CCC1 (centres undefined)	> 2000	> 2000	17	260	
COc1ccc(F)cc1C(C)(C)CC(O)(Cc1cc2ccncc2[nH]1)C(C)C (centres undefined)	> 2000	1000	9	73	Ratio IC50 (Homo sapiens [2]): > 100; Ratio IC50 (Homo sapiens [3]): > 100
COc1ccc(F)cc1C(C)(C)CC(O)(Cc1cc2ccncc2[nH]1)C(F)(F)F (centres undefined)	> 2000		4	10	
CCC(O)(Cc1cc2ccncc2[nH]1)CC(C)(C)c1cc(F)ccc1OC (centres undefined)	> 2000	> 2000	51	220	
COc1ccc(F)cc1C(C)(C)CC(O)(Cc1cc2cnccc2[nH]1)C1CC1 (centres undefined)	> 2000	1800	6	8	Emax at 2 µM (Glucocorticoid receptor [6]): 20%; EC50 (Glucocorticoid receptor [9]): 90 nM
